# US8487121B2, “Chromane derivatives as TRPV3 modulators” (Glenmark Pharmaceuticals S.A., priority 2007, dated 2013)
# Target: T1, Human TRPV3 (Homo sapiens, UniProt Q8NET8)
# T1 construct: expressed in transfected cells; host or cells: CHO cells (G-418 selected)
# T1 sequence (Q8NET8 1-790): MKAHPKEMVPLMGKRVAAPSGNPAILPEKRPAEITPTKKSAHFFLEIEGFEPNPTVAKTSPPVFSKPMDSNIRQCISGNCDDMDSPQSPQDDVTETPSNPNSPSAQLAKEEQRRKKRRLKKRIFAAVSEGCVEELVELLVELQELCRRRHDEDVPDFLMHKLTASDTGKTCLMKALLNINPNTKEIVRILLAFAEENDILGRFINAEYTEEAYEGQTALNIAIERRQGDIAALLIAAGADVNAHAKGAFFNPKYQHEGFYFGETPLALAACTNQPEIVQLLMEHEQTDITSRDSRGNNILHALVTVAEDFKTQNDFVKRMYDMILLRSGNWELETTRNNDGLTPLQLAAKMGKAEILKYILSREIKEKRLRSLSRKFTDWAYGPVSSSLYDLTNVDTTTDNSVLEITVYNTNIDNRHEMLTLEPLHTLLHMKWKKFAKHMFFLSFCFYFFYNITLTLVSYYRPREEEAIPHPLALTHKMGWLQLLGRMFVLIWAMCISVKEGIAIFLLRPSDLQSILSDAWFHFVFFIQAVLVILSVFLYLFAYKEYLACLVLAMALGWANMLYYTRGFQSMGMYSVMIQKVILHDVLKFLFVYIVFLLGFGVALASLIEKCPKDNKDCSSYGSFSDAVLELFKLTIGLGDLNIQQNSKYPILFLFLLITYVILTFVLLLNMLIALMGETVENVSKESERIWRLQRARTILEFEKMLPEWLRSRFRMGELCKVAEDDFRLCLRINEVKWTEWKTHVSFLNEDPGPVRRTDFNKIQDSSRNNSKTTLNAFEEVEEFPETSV
# Assay: 45Calcium uptake assay: inhibition of 2-APB induced cellular uptake of radioactive calcium
# Format: cell-based
# Details: human TRPV3 expressing CHO cells, 2-APB 500 μM; for inhibition at 1 µM: 1.0 μM compound, read-out: Percentage inhibition at 1.0 μM; for inhibition at 10 µM: 10.0 μM compound, read-out: Percentage inhibition at 10.0 μM
# Excerpt: The illustrative examples of the present invention are screened for TRPV3 activity according to a modified procedure described in Toth, A. et al. Life Sciences (2003), 73, 487-498. The screening of the compounds can be carried out by other methods and procedures known to a person skilled in the art. Such screening methods may be found in Hu, H-Z., et al. J. Biol. Chem. (2004), 279, 35741-35748; Smith, G. D et al. Nature (2002), 418, 186-190 and Peier, A. M., et al. Science (2002), 296, 2046-2049.
# Screening for TRPV3 Antagonist Using the ^45Calcium Uptake Assay:
# The inhibition of TRPV3 receptor activation was followed as inhibition of 2-APB induced cellular uptake of radioactive calcium. Test compounds were dissolved in DMSO to prepare 20 mM stock and then diluted using plain medium with 0.1% BSA and 1.8 mM CaCl2 to get desired concentration. Final concentration of DMSO in the reaction was 0.5% (v/v). Human TRPV3 expressing CHO cells were grown in F-12 DMEM medium with 10% FBS, 1% penicillin-streptomycin solution, 400 μg/ml of G-418. Cells were seeded 24 h prior to the assay in 96 well plates so as to get ˜50,000 cells per well on the day of experiment. Cells were treated with test compounds for 10 minutes followed by addition of 2-APB at a final concentration of 500 μM and 5 μCi/ml ^45Ca^+2 for 4 minutes. Cells were washed and lysed using buffer containing 1% Triton X-100, 0.1% deoxycholate and 0.1% SDS. Radioactivity in the lysate was measured in Packardt Top count after addition of liquid scintillant.
# Concentration response curves were plotted as a % of maximal response obtained in the absence of test antagonist. IC50 value was calculated from concentration response curve by nonlinear regression analysis using GraphPad PRISM software.
# Percentage inhibition at concentrations of 1.0 μM and 10.0 μM are given in the table along with IC50 (nM) values for selected examples.
inhibition at 1 µM,inhibition at 10 µM,IC50,Structure (SMILES)
44.6%,92.3%,,"O=C(CCc1cccc2ccccc12)NC1CC2(CCC2)Oc2ccc(Cl)cc21 (stereo not drawn) [Example 66, N-(6-Chloro-3,4-dihydrospiro[chromene-2,1′-cyclobutan]-4-yl)-3-(1-naphthyl)propanamide]"
17%,84.7%,,COc1ccc2ccccc2c1CCC(=O)N[C@@H]1CC2(CCC2)Oc2ccc(Cl)cc21 [Example 67]
70.6%,91%,0.5 to 1 µM,COc1ccc2ccccc2c1CCC(=O)N[C@H]1CC2(CCC2)Oc2ccc(Cl)cc21 [Example 68]
40.3%,86.8%,,"COc1ccc(CCC(=O)N[C@@H]2CC3(CCC3)Oc3ccc(Cl)cc32)c2ccccc12 [Example 69, N-[(4R)-6-Chloro-3,4-dihydrospiro[chromene-2,1′-cyclobutan]-4-yl)-3-(4-methoxy)-1-naphthylpropanamide]"
66.1%,91.2%,0.5 to 1 µM,"COc1ccc(CCC(=O)N[C@H]2CC3(CCC3)Oc3ccc(Cl)cc32)c2ccccc12 [Example 70, N-[(4S)-6-Chloro-3,4-dihydrospiro[chromene-2,1′-cyclobutan]-4-yl)-3-(4-methoxy)-1-naphthylpropanamide]"
61.3%,83.3%,0.5 to 1 µM,"O=C(CCc1ccc2ccccc2c1)NC1CC2(CCC2)Oc2ccc(Cl)cc21 (stereo not drawn) [Example 73, N-(6-Chloro-3,4-dihydrospiro[chromene-2,1′-cyclobutan]-4-yl)-3-(2-naphthyl)propanamide]"
64.1%,90.4%,1 to 2 µM,COc1ccc2cc(CCC(=O)N[C@@H]3CC4(CCC4)Oc4ccc(Cl)cc43)ccc2c1 [Example 74]
46.6%,90.4%,,COc1ccc2cc(CCC(=O)N[C@H]3CC4(CCC4)Oc4ccc(Cl)cc43)ccc2c1 [Example 75]
23.5%,58.8%,,"O=C(CCc1ccc2ccccc2n1)NC1CC2(CCC2)Oc2ccc(Cl)cc21 (stereo not drawn) [Example 76, N-(6-Chloro-3,4-dihydrospiro[chromene-2,1′-cyclobutan]-4-yl)-3-(quinolin-2-yl)propanamide]"

# Second part, the compound before the results:
Structure (SMILES),inhibition at 1 µM,inhibition at 10 µM,IC50
"Cc1cccc(CCC(=O)N[C@@H]2CC3(CCC3)Oc3ccc(Cl)cc32)c1OC1CCCC1 [Example 53, (4R)-6-Chloro-N-(3,4-dihydrospiro[chromene-2,1′-cyclobutan]-4-yl)-3-(2-cyclopentyloxy-3-methyl)phenylpropanamide]",61.9%,91.4%,0.5 to 1 µM
"Cc1cccc(CCC(=O)N[C@H]2CC3(CCC3)Oc3ccc(Cl)cc32)c1OC1CCCC1 [Example 54, (4S)-6-Chloro-N-(3,4-dihydrospiro[chromene-2,1′-cyclobutan]-4-yl)-3-(2-cyclopentyloxy-3-methyl)phenylpropanamide]",36.2%,63.6%,
"COc1cccc(CCC(=O)NC2CC3(CCC3)Oc3ccc(Cl)cc32)c1OCc1ccccc1 (stereo not drawn) [Example 56, N-(6-Chloro-3,4-dihydrospiro[chromene-2,1′-cyclobutan]-4-yl)-3-(2-benzyloxy-3-methoxy)phenylpropanamide]",57.5%,87.5%,
"CC(C)Oc1c(CCC(=O)NC2CC3(CCC3)Oc3ccc(Cl)cc32)cccc1NS(C)(=O)=O (stereo not drawn) [Example 57, N-(6-Chloro-3,4-dihydrospiro[chromene-2,1′-cyclobutan]-4-yl)-3-{2-isopropoxy-3-[(methylsulfonyl)amino]phenyl}propanamide]",30.3%,84.3%,
"CC(C)Oc1c(CCC(=O)NC2CC3(CCC3)Oc3c(Cl)cccc32)cccc1NS(C)(=O)=O (stereo not drawn) [Example 58, N-(8-Chloro-3,4-dihydrospiro[chromene-2,1′-cyclobutan]-4-yl)-3-{2-isopropoxy-3-[(methylsulfonyl)amino]phenyl}propanamide]",61.7%,98.7%,
"COc1cccc(CCC(=O)NC2CC3(CCC3)Oc3c(Cl)cc(Cl)cc32)c1OC1CCCC1 (stereo not drawn) [Example 59, N-(6,8-Dichloro-3,4-dihydrospiro[chromene-2,1′-cyclobutan]-4-yl)-3-(2-cyclopentyloxy-3-methoxy)phenylpropanamide]",89.4%,96.3%,< 0.5 µM
"COc1cccc(CCC(=O)NC2CC3(CCC3)Oc3c(Cl)cc(Cl)cc32)c1OCCN(C)C (stereo not drawn) [Example 60, N-(6,8-dichloro-3,4-dihydrospiro[chromene-2,1′-cyclobutan]-4-yl)-3-{[2-(dimethylamino)ethoxy-3-methoxy]phenyl}propanamide]",1.2%,0%,
"CCCOc1c(CCC(=O)NC2CC3(CCC3)Oc3c(Cl)cc(Cl)cc32)cccc1NS(C)(=O)=O (stereo not drawn) [Example 61, N-(6,8-dichloro-3,4-dihydrospiro[chromene-2,1′-cyclobutan]-4-yl)-3-{2-propoxy-3-[(methylsulfonyl)amino]phenyl}propanamide]",45.1%,93.8%,
"CC(C)Oc1ccc(NS(C)(=O)=O)cc1CCC(=O)NC1CC2(CCC2)Oc2c(Cl)cc(Cl)cc21 (stereo not drawn) [Example 62, N-(6,8-Dichloro-3,4-dihydrospiro[chromene-2,1′-cyclobutan]-4-yl)-3-{2-isopropoxy-5-[(methylsulfonyl)amino]phenyl}propanamide]",13.5%,82.2%,
"CCCCOc1c(CCC(=O)NC2CC3(CCC3)Oc3c(Cl)cc(Cl)cc32)cccc1NS(C)(=O)=O (stereo not drawn) [Example 63, N-(6,8-Dichloro-3,4-dihydrospiro[chromene-2,1′-cyclobutan]-4-yl)-3-{2-butoxy-3-[(methylsulfonyl)amino]phenyl}propanamide]",73.3%,97%,
"CS(=O)(=O)Nc1cccc(CCC(=O)NC2CC3(CCC3)Oc3c(Cl)cc(Cl)cc32)c1OCC1CC1 (stereo not drawn) [Example 64, N-(6,8-Dichloro-3,4-dihydrospiro[chromene-2,1′-cyclobutan]-4-yl)-3-{2-(cyclopropylmethoxy)-3-[(methylsulfonyl)amino]phenyl}propanamide]",37.6%,95.4%,
"CC(C)Oc1c(CCC(=O)NC2CC3(CCC3)Oc3c(Cl)cc(Cl)cc32)cccc1NS(C)(=O)=O (stereo not drawn) [Example 65, N-(6,8-Dichloro-3,4-dihydrospiro[chromene-2,1′-cyclobutan]-4-yl)-3-{2-isopropoxy-3-[(methylsulfonyl)amino]phenyl}propanamide]",74.1%,99.5%,0.5 to 1 µM
"O=C(CCc1ccc(OC(F)F)c2ccccc12)N[C@@H]1CC2(CCC2)Oc2ccc(Cl)cc21 [Example 71, (4R)-6-Chloro-N-(3,4-dihydrospiro[chromene-2,1′-cyclobutan]-4-yl)-3-(4-difluoro-methoxy-1-naphthyl)propanamide]",53.5%,95.5%,
"O=C(CCc1ccc(OC(F)F)c2ccccc12)N[C@H]1CC2(CCC2)Oc2ccc(Cl)cc21 [Example 72, (4S)-6-Chloro-N-(3,4-dihydrospiro[chromene-2,1′-cyclobutan]-4-yl)-3-(4-difluoromethoxy-1-naphthyl)propanamide]",60.3%,93.3%,0.5 to 1 µM
